Drawing on ChEMBL document CHEMBL1255518, “Novel pyrrole- and 1,2,3-triazole-based 2,3-oxidosqualene cyclase inhibitors” (Bioorg Med Chem Lett, 2010), this text covers IC50 and inhibition for five compounds.

One test concerns the target T1, Lanosterol synthase (Homo sapiens, UniProt P48449).
T1 sequence (P48449 whole entry): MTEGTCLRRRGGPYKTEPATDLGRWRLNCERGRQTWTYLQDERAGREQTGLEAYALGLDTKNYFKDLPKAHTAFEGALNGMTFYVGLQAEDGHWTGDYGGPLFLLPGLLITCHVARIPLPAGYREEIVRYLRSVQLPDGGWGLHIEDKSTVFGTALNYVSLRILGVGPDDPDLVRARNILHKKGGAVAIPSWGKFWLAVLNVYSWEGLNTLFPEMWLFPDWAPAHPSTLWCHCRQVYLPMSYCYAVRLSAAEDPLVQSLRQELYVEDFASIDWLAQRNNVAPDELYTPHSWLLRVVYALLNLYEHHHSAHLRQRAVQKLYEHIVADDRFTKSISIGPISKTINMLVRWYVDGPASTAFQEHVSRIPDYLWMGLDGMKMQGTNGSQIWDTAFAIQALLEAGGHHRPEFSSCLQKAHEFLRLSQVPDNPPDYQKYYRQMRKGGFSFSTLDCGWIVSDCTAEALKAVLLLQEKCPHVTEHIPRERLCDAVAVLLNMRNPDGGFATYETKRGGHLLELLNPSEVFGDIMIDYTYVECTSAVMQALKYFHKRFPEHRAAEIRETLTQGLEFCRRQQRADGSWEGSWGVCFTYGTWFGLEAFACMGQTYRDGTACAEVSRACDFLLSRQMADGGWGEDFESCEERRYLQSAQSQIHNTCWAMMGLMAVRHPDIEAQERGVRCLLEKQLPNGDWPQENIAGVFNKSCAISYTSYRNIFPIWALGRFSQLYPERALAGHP
The experiment in a line: Inhibition of OSC.

Test [1] has as its target T2, Lanosterol synthase (Homo sapiens) (UniProt P48449).
T2 sequence (whole entry): T1 sequence (P48449 whole entry)
The experiment in a line: Inhibition of OSC at 20 uM.

The term IC50 denotes the concentration at which inhibition is half-maximal. By inhibition is commonly meant the relative decrease from the control value, in per cent.

`COc1ccc(-n2c(C)cc(C(=O)NCc3ccc(CN(C)C)cc3)c2C)cc1` showed an IC50 at Lanosterol synthase of 35.4 µM.
Still for that read-out and setting: for `COc1ccc(-n2c(C)cc(CNC(=O)c3ccc(CN(C)C)cc3)c2C)cc1` the value was 58.8 µM.
On Lanosterol synthase, `COc1ccc(-n2c(C)cc(CNCc3ccc(CN(C)C)cc3)c2C)cc1` came in with an IC50 of 12.7 µM. Moreover, the inhibition in test [1] came out at 86%.
The corresponding values for `CCCCCCCCCCCC[N+](C)(C)[O-]` are 2.15 µM and 84%.
As to `CN(C)Cc1ccc(CNCc2cnn(-c3ccccc3)n2)cc1`, the IC50 on Lanosterol synthase amounted to 1.41 µM. The inhibition in test [1] turned out to be 128%.
